Reference: PubChem BioAssay (NCI)
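Method: 48-hour compound exposure of cells in 96-well plates, five concentrations, linear interpolation of endpoints. TGI is the concentration that stops growth completely.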

Assays:
Assay in all cases: inhibition of tumour cell growth, NCI panel, 48 h
NCI-H23 lung = tested on: NCI-H23 lung
SNB-19 CNS = tested on: SNB-19 CNS
RXF 393 renal = tested on: RXF 393 renal
U251 CNS = tested on: U251 CNS
M14 melanoma = tested on: M14 melanoma
A549 NSCLC = tested on: A549 NSCLC
SK-MEL-5 melanoma = tested on: SK-MEL-5 melanoma
SF-268 CNS = tested on: SF-268 CNS
HCT-15 colon = tested on: HCT-15 colon
LOX IMVI melanoma = tested on: LOX IMVI melanoma
OVCAR-3 ovarian = tested on: OVCAR-3 ovarian
PC-3 prostate = tested on: PC-3 prostate
SR leukemia = tested on: SR leukemia
DU-145 prostate = tested on: DU-145 prostate
SN12C renal = tested on: SN12C renal
786-0 renal = tested on: 786-0 renal
COLO 205 colon = tested on: COLO 205 colon
HOP-62 NSCLC = tested on: HOP-62 NSCLC
OVCAR-4 ovarian = tested on: OVCAR-4 ovarian
MDA-MB-231 breast = tested on: MDA-MB-231 breast
MCF7 breast = tested on: MCF7 breast
HCT-116 colon = tested on: HCT-116 colon
T-47D breast = tested on: T-47D breast
UACC-257 melanoma = tested on: UACC-257 melanoma
SK-MEL-2 melanoma = tested on: SK-MEL-2 melanoma
NCI/ADR-RES ovarian = tested on: NCI/ADR-RES ovarian
MOLT-4 leukemia = tested on: MOLT-4 leukemia
KM12 colon = tested on: KM12 colon
HL-60(TB) leukemia = tested on: HL-60(TB) leukemia
NCI-H522 lung = tested on: NCI-H522 lung
MDA-N = tested on: MDA-N
IGROV1 ovarian = tested on: IGROV1 ovarian
HS 578T breast = tested on: HS 578T breast
RPMI-8226 leukemia = tested on: RPMI-8226 leukemia
MALME-3M melanoma = tested on: MALME-3M melanoma
ACHN renal = tested on: ACHN renal
EKVX NSCLC = tested on: EKVX NSCLC
HOP-92 NSCLC = tested on: HOP-92 NSCLC
SK-OV-3 ovarian = tested on: SK-OV-3 ovarian
NCI-H226 lung = tested on: NCI-H226 lung
OVCAR-8 ovarian = tested on: OVCAR-8 ovarian
BT-549 breast = tested on: BT-549 breast
HT29 colon = tested on: HT29 colon
A498 renal = tested on: A498 renal
OVCAR-5 ovarian = tested on: OVCAR-5 ovarian
SK-MEL-28 melanoma = tested on: SK-MEL-28 melanoma
UACC-62 melanoma = tested on: UACC-62 melanoma
K-562 leukemia = tested on: K-562 leukemia
SF-295 CNS = tested on: SF-295 CNS
TK-10 renal = tested on: TK-10 renal
SW-620 colon = tested on: SW-620 colon
UO-31 renal = tested on: UO-31 renal
MDA-MB-435 = tested on: MDA-MB-435
CAKI-1 renal = tested on: CAKI-1 renal
SNB-75 CNS = tested on: SNB-75 CNS
CCRF-CEM leukemia = tested on: CCRF-CEM leukemia
SF-539 CNS = tested on: SF-539 CNS
HCC-2998 colon = tested on: HCC-2998 colon
NCI-H460 lung = tested on: NCI-H460 lung

`CC(C)(C)OC(=O)CCC1NC(=O)[C@@H]2Cc3c([nH]c4ccccc34)C(c3ccccc3)N2C1=O` (stereo not given in full) gave a TGI (NCI-H23 lung) of 79.6 µM, a TGI (SNB-19 CNS) greater than 100 µM and a TGI (RXF 393 renal) of 45.7 µM. It also gave a TGI (U251 CNS) of 43.3 µM, a TGI (M14 melanoma) of 87.2 µM and a TGI (A549 NSCLC) greater than 100 µM. It also gave a TGI (SK-MEL-5 melanoma) of 37.9 µM, a TGI (SF-268 CNS) of 75.8 µM and a TGI (HCT-15 colon) of 90.5 µM. For the same molecule, the TGI (LOX IMVI melanoma) was 36.3 µM, the TGI (OVCAR-3 ovarian) was 48.5 µM and the TGI (PC-3 prostate) was 52.9 µM. For the same molecule, the TGI (SR leukemia) was greater than 100 µM, the TGI (DU-145 prostate) was greater than 100 µM and the TGI (SN12C renal) was 53.1 µM. The TGI (786-0 renal) was greater than 100 µM, the TGI (COLO 205 colon) was 43.7 µM and the TGI (HOP-62 NSCLC) was 51.2 µM. It also gave a TGI (OVCAR-4 ovarian) greater than 100 µM, a TGI (MDA-MB-231 breast) of 42.1 µM and a TGI (MCF7 breast) greater than 100 µM. It also gave a TGI (HCT-116 colon) of 42.7 µM, a TGI (T-47D breast) greater than 100 µM and a TGI (UACC-257 melanoma) of 50.1 µM. The TGI (SK-MEL-2 melanoma) was 43.2 µM, the TGI (NCI/ADR-RES ovarian) was 87.6 µM and the TGI (MOLT-4 leukemia) was greater than 100 µM. For the same molecule, the TGI (KM12 colon) was 65.4 µM, the TGI (HL-60(TB) leukemia) was 51.2 µM and the TGI (NCI-H522 lung) was 54.1 µM. For the same molecule, the TGI (MDA-N) was 45.7 µM, the TGI (IGROV1 ovarian) was 98.7 µM and the TGI (HS 578T breast) was 58.3 µM. The TGI (RPMI-8226 leukemia) was greater than 100 µM, the TGI (MALME-3M melanoma) was 43.4 µM and the TGI (ACHN renal) was 94.5 µM. The TGI (EKVX NSCLC) was greater than 100 µM, the TGI (HOP-92 NSCLC) was 67.7 µM and the TGI (SK-OV-3 ovarian) was greater than 100 µM. For the same molecule, the TGI (NCI-H226 lung) was 86.8 µM, the TGI (OVCAR-8 ovarian) was greater than 100 µM and the TGI (BT-549 breast) was 64.4 µM. It also gave a TGI (HT29 colon) of 56 µM, a TGI (A498 renal) greater than 100 µM and a TGI (OVCAR-5 ovarian) of 70.2 µM. It also gave a TGI (SK-MEL-28 melanoma) greater than 100 µM, a TGI (UACC-62 melanoma) of 35.7 µM and a TGI (K-562 leukemia) greater than 100 µM. The TGI (SF-295 CNS) was 37.8 µM, the TGI (TK-10 renal) was greater than 100 µM and the TGI (SW-620 colon) was greater than 100 µM. For the same molecule, the TGI (UO-31 renal) was greater than 100 µM, the TGI (MDA-MB-435) was 52.1 µM and the TGI (CAKI-1 renal) was 75.8 µM.
For `CCOC(=O)c1cc2c(OC)cc(OC)cc2oc1=O`, the TGI (NCI-H23 lung) was greater than 100 µM, the TGI (SNB-19 CNS) was greater than 100 µM and the TGI (RXF 393 renal) was greater than 100 µM. The TGI (U251 CNS) was greater than 100 µM, the TGI (M14 melanoma) was greater than 100 µM and the TGI (A549 NSCLC) was greater than 100 µM. For the same molecule, the TGI (SK-MEL-5 melanoma) was greater than 100 µM, the TGI (SF-268 CNS) was greater than 100 µM and the TGI (HCT-15 colon) was greater than 100 µM. The TGI (LOX IMVI melanoma) was greater than 100 µM, the TGI (OVCAR-3 ovarian) was greater than 100 µM and the TGI (PC-3 prostate) was greater than 100 µM. The TGI (SR leukemia) was greater than 100 µM, the TGI (SNB-75 CNS) was greater than 100 µM and the TGI (DU-145 prostate) was greater than 100 µM. For the same molecule, the TGI (SN12C renal) was greater than 100 µM, the TGI (CCRF-CEM leukemia) was greater than 100 µM and the TGI (786-0 renal) was greater than 100 µM. The TGI (COLO 205 colon) was greater than 100 µM, the TGI (HOP-62 NSCLC) was greater than 100 µM and the TGI (OVCAR-4 ovarian) was greater than 100 µM. The TGI (MDA-MB-231 breast) was greater than 100 µM, the TGI (MCF7 breast) was greater than 100 µM and the TGI (HCT-116 colon) was greater than 100 µM. The TGI (T-47D breast) was greater than 100 µM, the TGI (UACC-257 melanoma) was greater than 100 µM and the TGI (SK-MEL-2 melanoma) was greater than 100 µM. For the same molecule, the TGI (NCI/ADR-RES ovarian) was greater than 100 µM, the TGI (MOLT-4 leukemia) was greater than 100 µM and the TGI (HL-60(TB) leukemia) was greater than 100 µM. For the same molecule, the TGI (NCI-H522 lung) was greater than 100 µM, the TGI (MDA-N) was greater than 100 µM and the TGI (IGROV1 ovarian) was greater than 100 µM. The TGI (HS 578T breast) was greater than 100 µM, the TGI (RPMI-8226 leukemia) was greater than 100 µM and the TGI (MALME-3M melanoma) was greater than 100 µM. The TGI (ACHN renal) was greater than 100 µM, the TGI (EKVX NSCLC) was greater than 100 µM and the TGI (HOP-92 NSCLC) was greater than 100 µM. For the same molecule, the TGI (NCI-H226 lung) was greater than 100 µM, the TGI (OVCAR-8 ovarian) was greater than 100 µM and the TGI (BT-549 breast) was greater than 100 µM. For the same molecule, the TGI (HT29 colon) was greater than 100 µM, the TGI (A498 renal) was greater than 100 µM and the TGI (OVCAR-5 ovarian) was greater than 100 µM. It also gave a TGI (SK-MEL-28 melanoma) greater than 100 µM, a TGI (SF-539 CNS) greater than 100 µM and a TGI (HCC-2998 colon) greater than 100 µM. The TGI (UACC-62 melanoma) was greater than 100 µM, the TGI (K-562 leukemia) was greater than 100 µM and the TGI (SF-295 CNS) was greater than 100 µM. The TGI (TK-10 renal) was greater than 100 µM, the TGI (SW-620 colon) was greater than 100 µM and the TGI (MDA-MB-435) was greater than 100 µM. The TGI (NCI-H460 lung) was greater than 100 µM and the TGI (CAKI-1 renal) was greater than 100 µM.
